{"source": "patent US20230338391A1", "about": "“TREATMENT FOR DEPRESSION” (TAKEDA PHARMACEUTICAL COMPANY LIMITED, priority 2020, published 2023)", "key": {"[1]": {"test_system": "CNS excitability", "test": "TMS crossover study of CNS PD activity in healthy subjects"}, "[2]": {"test_system": "Sprague-Dawley rats", "test": "in vivo", "details": "female, rat, 200 mg/kg/day, 14 days", "protocol": "(§1) An appropriate amount of methylcellulose (MC) was weighed and mixed with a small amount of warm water for injection. The mixture was then diluted with water for injection to make a 0.5% (w/v) MC solution. The vehicle was used for dosing in the control group. To make a 40 mg/mL suspension of COMPOUND A, an appropriate amount of the test article was weighed and mixed with the vehicle using a planetary centrifugal mixer and the mixture was then diluted with additional vehicle. The 40 mg/mL suspension was used to make 20 and 10 mg/mL suspensions by stepwise dilutions with the vehicle. The dosing suspensions were stored in a refrigerator (actual values: 3.7° C. to 6.1° C., acceptable range: 2° C. to 8° C.) under light-resistant conditions (tight container) and used within 8 days after preparation.\n(§2) Males and females in good condition were selected for this study based on examinations within 4 days before the first dosing. Based on their body weights, animals were stratified and allocated randomly to 3 main study groups, each composed of 18 males and 18 females, and 2 satellite groups each composed of 9 males and 9 females for determination of plasma drug and metabolite concentrations. Surplus animals after animal selection were excluded from the study on the day after the animal selection or the day dosing commenced (Day 1).\n(§3) The behavior of the high-dose main study and TK satellite groups was video-recorded continuously throughout the dosing period (until the morning on the day of necropsy) under non-GLP conditions. The video-recorded images were kept on a hard drive and were archived as study data. […]\n(§4) Each animal was weighed pre-dose using electronic balances (PB3002-S; Mettler-Toledo K.K. and UX4200H; Shimadzu Corporation) on Days 1, 2, 4, 7, 11, and 14 during the dosing period. Body weights were also measured for all animals on the day of necropsy on Days 3, 8, and 15, and these terminal body weight values were also used for calculation of the amount of anesthesia. […]"}, "[3]": {"test": "in vivo", "parameters": "species or system Sprague-Dawley rats", "details": "both sexes, Sprague-Dawley, rat, po", "protocol": "as §1, §2, §3, §4"}, "[4]": {"test_system": "MEPs", "test": "Nonclinical MEP amplitude in rats", "assay_type": "in vivo", "details": "nonclinical data"}, "[5]": {"test": "14-day rat neurotoxicology study: toxicokinetics", "assay_type": "in vivo, Sprague-Dawley rats", "details": "for AUC / concentration at 15 day / Cmax: Sprague-Dawley, rat, plasma; for concentration at 15 day: read-out: plasma level at the time of sacrifice", "protocol": "as §1, §2\nReferring to Tables 4A and 4B, the plasma concentrations of COMPOUND A on Days 2, 7, and 14 were determined in each satellite group. Blood samples (approximately 0.25 mL) were drawn without anesthesia from the subclavian vein of 3 animals of each sex in the satellite groups at each sampling point using sodium-heparinized syringes. Sampling points were as follows: pre-dose and at 1, 2, 4, 8, and 24 hours post-dose. In addition, the plasma concentrations of COMPOUND A before scheduled necropsy were determined in each main study group. The plasma samples (≥0.08 mL) in polypropylene tubes were frozen and stored in a freezer (actual values: −87.0° C. to −83.5° C.) until shipment with parallel quality control (QC) samples prepared by test site 2 and stored under the same conditions as study plasma samples in the test facility. The samples, including the parallel QC samples, were packed with dry ice and shipped to test site 2. The samples were stored frozen at −85.8° C. to −75.5° C. until assay. The plasma concentrations of COMPOUND A and its metabolites, were determined by liquid chromatography/tandem mass spectrometry (LC/MS/MS) and the TK parameters (tmax, Cmax, and AUC24 value) on Days 2, 7, and 14 were calculated for the satellite groups at test site 2."}, "[6]": {"test_system": "healthy subjects", "test": "TMS crossover study: safety and tolerability", "details": "single doses 0.5 mg and 6 mg oral tablets"}, "[7]": {"details": "0.5 mg and 6 mg single oral doses"}}, "note": "Values joined by “and” are separate entries in the source; they are usually repeats but may differ in a detail not shown here. Equal entries are not always repeated. “Also recorded” adds a separate entry of the source. Where two headings read alike, the source gives them in different places."}
{"smiles": "CC1=CN2CCS(=O)(=O)N=C2C(c2ccc(OC3CCCCC3)cc2)=N1", "note": "[COMPOUND A, 9-[4-(Cyclohexyloxy)phenyl]-7-methyl-3,4-dihydropyrazino[2,1-c][1,2,4]thiadiazine 2,2-dioxide]", "values": [{"measurement": "SICI measurements and other secondary endpoints", "setting": "[1]; [7]", "value": "not statistically significant"}, {"measurement": "changes from baseline in the rMT, single-pulse TMS", "setting": "[1]; [7]", "value": "not statistically significant"}, {"measurement": "change from baseline of LICI 300 ms", "setting": "[1]; 0.5 mg single oral dose, 2.5 hours post-dose", "value": "statistically significant PD effect"}, {"measurement": "peak-to-peak amplitude of the MEP, single-pulse TMS, change from baseline vs placebo", "setting": "[1]; 6 mg single oral dose, 2.5 hours post-dose, stimulation intensity 120% of baseline rMT", "value": "statistically significant difference from baseline when compared with placebo; also recorded: statistically significant PD effect"}, {"measurement": "cerebellar Purkinje cell histopathology (HE, Fluoro-Jade)", "setting": "[2]", "value": "necrosis and/or Fluoro-Jade positive staining of Purkinje cells (dendrites, cell bodies, or axons) in 3 rats"}, {"measurement": "tonic convulsions (video recordings)", "setting": "[2]", "value": "tonic convulsions in 2 rats"}, {"measurement": "NOAEL at 14 days", "setting": "[3]", "value": 100, "unit": "mg/kg/day"}, {"measurement": "amplitude of MEPs", "setting": "[4]", "value": "increases the amplitude of MEPs in rats"}, {"measurement": "plasma level at the time of sacrifice", "setting": "[5]; Day 15, females at 200 mg/kg/day not observed to convulse, no brain histopathology, individual animals, 200 mg/kg/day", "value": "192 ng/mL and 968 ng/mL and 114 ng/mL"}, {"measurement": "plasma level at the time of sacrifice", "setting": "[5]; Day 15, females at 200 mg/kg/day with lesions visible with Fluoro-Jade only, individual animals, 200 mg/kg/day", "value": 138, "unit": "ng/mL"}, {"measurement": "AUC", "setting": "[5]; both sexes, oral, 100 mg/kg/day, NOAEL 100 mg/kg/day, read-out: NOAEL exposure cap (AUC) from the 14-day neurotoxicity study in rats", "value": 17400, "unit": "ng·h/mL"}, {"measurement": "concentration at 15 day", "setting": "[5]; female, oral, 200 mg/kg/day, Day 15, female at 200 mg/kg/day with lesions visible with both HE and Fluoro-Jade, individual animal", "value": 935, "unit": "ng/mL"}, {"measurement": "concentration at 15 day", "setting": "[5]; female, oral, 200 mg/kg/day, Day 15, females at 200 mg/kg/day with lesions visible with Fluoro-Jade only, individual animals", "value": 182, "unit": "ng/mL"}, {"measurement": "Cmax", "setting": "[5]; female, po, 100 mg/kg/day, 100 mg/kg/day oral, female, Day 2", "value": 1640, "unit": "ng/mL"}, {"measurement": "AUC", "setting": "[5]; female, po, 100 mg/kg/day, 100 mg/kg/day oral, female, Day 2, read-out: AUC24", "value": 20500, "unit": "ng·h/mL"}, {"measurement": "Cmax", "setting": "[5]; female, po, 100 mg/kg/day, 100 mg/kg/day oral, female, Day 7", "value": 1270, "unit": "ng/mL"}, {"measurement": "AUC", "setting": "[5]; female, po, 100 mg/kg/day, 100 mg/kg/day oral, female, Day 7, read-out: AUC24", "value": 14900, "unit": "ng·h/mL"}, {"measurement": "Cmax", "setting": "[5]; female, po, 100 mg/kg/day, 100 mg/kg/day oral, female, Day 14", "value": 1670, "unit": "ng/mL"}, {"measurement": "AUC", "setting": "[5]; female, po, 100 mg/kg/day, 100 mg/kg/day oral, female, Day 14, read-out: AUC24", "value": 17800, "unit": "ng·h/mL"}, {"measurement": "Cmax", "setting": "[5]; female, po, 200 mg/kg/day, 200 mg/kg/day oral, female, Day 2", "value": 1630, "unit": "ng/mL"}, {"measurement": "AUC", "setting": "[5]; female, po, 200 mg/kg/day, 200 mg/kg/day oral, female, Day 2, read-out: AUC24", "value": 18000, "unit": "ng·h/mL"}, {"measurement": "Cmax", "setting": "[5]; female, po, 200 mg/kg/day, 200 mg/kg/day oral, female, Day 7", "value": 2340, "unit": "ng/mL"}, {"measurement": "AUC", "setting": "[5]; female, po, 200 mg/kg/day, 200 mg/kg/day oral, female, Day 7, read-out: AUC24", "value": 31800, "unit": "ng·h/mL"}, {"measurement": "Cmax", "setting": "[5]; female, po, 200 mg/kg/day, 200 mg/kg/day oral, female, Day 14", "value": 2210, "unit": "ng/mL"}, {"measurement": "AUC", "setting": "[5]; female, po, 200 mg/kg/day, 200 mg/kg/day oral, female, Day 14, read-out: AUC24", "value": 27600, "unit": "ng·h/mL"}, {"measurement": "Cmax", "setting": "[5]; male, po, 50 mg/kg/day, 50 mg/kg/day oral, male, Day 2", "value": 836, "unit": "ng/mL"}, {"measurement": "AUC", "setting": "[5]; male, po, 50 mg/kg/day, 50 mg/kg/day oral, male, Day 2, read-out: AUC24", "value": 9480, "unit": "ng·h/mL"}, {"measurement": "Cmax", "setting": "[5]; male, po, 50 mg/kg/day, 50 mg/kg/day oral, male, Day 7", "value": 841, "unit": "ng/mL"}, {"measurement": "AUC", "setting": "[5]; male, po, 50 mg/kg/day, 50 mg/kg/day oral, male, Day 7, read-out: AUC24", "value": 10700, "unit": "ng·h/mL"}, {"measurement": "Cmax", "setting": "[5]; male, po, 50 mg/kg/day, 50 mg/kg/day oral, male, Day 14", "value": 728, "unit": "ng/mL"}, {"measurement": "AUC", "setting": "[5]; male, po, 50 mg/kg/day, 50 mg/kg/day oral, male, Day 14, read-out: AUC24", "value": 8750, "unit": "ng·h/mL"}, {"measurement": "Cmax", "setting": "[5]; male, po, 100 mg/kg/day, 100 mg/kg/day oral, male, Day 2", "value": 1200, "unit": "ng/mL"}, {"measurement": "AUC", "setting": "[5]; male, po, 100 mg/kg/day, 100 mg/kg/day oral, male, Day 2, read-out: AUC24", "value": 15000, "unit": "ng·h/mL"}, {"measurement": "Cmax", "setting": "[5]; male, po, 100 mg/kg/day, 100 mg/kg/day oral, male, Day 7", "value": 917, "unit": "ng/mL"}, {"measurement": "AUC", "setting": "[5]; male, po, 100 mg/kg/day, 100 mg/kg/day oral, male, Day 7, read-out: AUC24", "value": 13000, "unit": "ng·h/mL"}, {"measurement": "Cmax", "setting": "[5]; male, po, 100 mg/kg/day, 100 mg/kg/day oral, male, Day 14", "value": 1290, "unit": "ng/mL"}, {"measurement": "AUC", "setting": "[5]; male, po, 100 mg/kg/day, 100 mg/kg/day oral, male, Day 14, read-out: AUC24", "value": 17000, "unit": "ng·h/mL"}, {"measurement": "deaths or SAEs", "setting": "[6]", "value": "No deaths or SAEs were reported"}]}
